Measured values: patent publication US11548935B2 (NeoMatrix Therapeutics Inc., priority 2016, dated 2023)
Entries after “also recorded” stand apart in the source; their conditions may differ. Peptide text beside a SMILES is read from it.

Experiments:
[1] = tested on: Adult human dermal fibroblasts CF31 cells; experiment: Fibroblast metabolism (XTT) assay with 1 nM PDGF-BB, 6 days; format: cell-based; settings: for bioactivity as determined by fibroblast metabolism assay: FIG. 2, XTT OD 450 nm
Protocol: Adult human dermal fibroblasts CF31 cells at 1000 cells/well were seeded in a collagen-coated 96-well plate in DMEM overnight, then 1 nM PDGF-BB with peptides at indicated doses was added and cells were incubated at 37° C. for 6 days. Then cell metabolism was measured by XTT assay by reading OD at 450 nm. Each point represents the mean of 6 replicates with a typical SD=5-10% around the mean (not shown for graft clarity).
Adult human dermal fibroblasts, CF31, at 1000 cells/well were incubated at 37° C. in a collagen-coated 96-well plate with DMEM, 1 nM PDGF-BB with peptides at indicated doses for 6 days and then cell metabolism was measured by XTT assay, reading OD at 450 nm. Data represent the mean of 6 replicates.
P12, P46, cNP7 and cNP8 were compared for their ability to promote the survival of adult human dermal fibroblasts in the presence of PDGF-BB. Adult human dermal fibroblasts at 1000 cells/well were incubated in a collagen-coated 96-well plate with DMEM, 1 nM PDGF-BB with peptides at indicated doses for 6 days and then cell metabolism was measured by XTT assay. Data represent the mean of 6 replicates (FIG. 4).

PDGF-BB = PDGF-BB (Homo sapiens, UniProt P01127); experiment: Surface plasmon resonance (Biacore) binding to growth factor; settings: plasmon surface resonance (Biacore T200)
PDGF-BB, sequence (P01127 82-190 limits assumed): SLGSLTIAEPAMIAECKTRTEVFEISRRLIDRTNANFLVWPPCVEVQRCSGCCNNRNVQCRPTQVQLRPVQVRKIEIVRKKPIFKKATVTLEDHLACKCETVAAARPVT
Protocol: (§1) To study the binding activities of these peptides, real time interactions of P12, P46, and cNP8 with growth factors were determined by plasmon surface resonance (Biacore T200).
In the Biacore2000 system, binding constants from kinetic data are determined by passing varying concentrations of FN peptides (analytes) over chip surfaces which are coupled with PDGF-BB (ligand), respectively. All kinetic experiments are carried out at 20° C. at a flow rate of 20 μl/min. For mass transport experiments, each analyte is injected at a fixed concentration and run at flow rates ranging from 5 to 75 μl/min. All analytes are injected over PDGF-BB ligand surfaces as well as over a control surface for 120 s, followed by 300 s of dissociation in running buffer. Regeneration of the sensor chip for subsequent injections is accomplished by pulse of 0.1% SDS. Mass transport experiments have detected little difference in response at different flow rates thus validating data from kinetic experiments. Sensorgrams are prepared and globally fitted using nonlinear least-squares analysis and numerical integration of the differential rate equations with the Biacore Bioevaluation software. […] Each data set, which consists of a series of sensorgrams from injections of different concentration of analyte over the same surface, is analyzed using kinetic models from Bioevaluation software.

[2] = biological target: Transforming Growth Factor-Beta1 (TGF-β1) (Homo sapiens, UniProt P01137); experiment: as above; settings: plasmon surface resonance (Biacore T200)
Transforming Growth Factor-Beta1 (TGF-β1), sequence (P01137 279-390 limits assumed, species assumed): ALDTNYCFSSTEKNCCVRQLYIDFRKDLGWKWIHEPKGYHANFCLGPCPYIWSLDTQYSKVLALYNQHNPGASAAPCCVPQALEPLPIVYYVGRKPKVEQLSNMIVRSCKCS
Protocol: as §1

[3] = biological target: epidermal growth factor (EGF) (Homo sapiens, UniProt P01133); experiment: as above; settings: plasmon surface resonance (Biacore T200)
epidermal growth factor (EGF), sequence (P01133 971-1023 limits assumed, species assumed): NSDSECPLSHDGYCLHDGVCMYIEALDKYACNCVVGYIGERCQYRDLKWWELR
Protocol: as §1

[4] = biological target: insulin-like growth factor-1 (IGF-1) (Homo sapiens, UniProt P05019); experiment: as above; settings: plasmon surface resonance (Biacore T200)
insulin-like growth factor-1 (IGF-1), sequence (P05019 49-118, species assumed): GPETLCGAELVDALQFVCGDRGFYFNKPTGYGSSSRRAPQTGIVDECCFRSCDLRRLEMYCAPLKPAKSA
Protocol: as §1

burn wounds [5] = experiment: Topical treatment of porcine deep partial-thickness burns (PLO gel); format: in vivo, pig; settings: 48-hour debrided wounds, 10 days after wounding, vs control or cP12 (FIG. 6)
Protocol: Four female, 20-30 kg, domestic pigs were used for cutaneous wound procedures.
Study Protocol: The animals were sedated with Talazine (Tiletamine and Zolazepam, Fort Dodge Lab, Fort Dodge, Iowa) 5 mg/kg IM. The pigs were then intubated endotracheally and maintained under a surgical plane of anesthesia with isoflurane 0.5-2.5% in room air. The flank and back hair were clipped with electric hair clippers and the skin was scrubbed with a povidone iodine solution.
Standardized deep partial-thickness burns were created on the animals' backs and flanks by applying a 2.5-cm by 2.5-cm, 150-gram aluminum bar preheated in hot water to 80° C. The burns were created on either side of the vertebral column between the forelegs and hind legs. The heated bar was wiped dry just prior to application to prevent water droplets from creating a steam burn on the skin. The bar was then placed at a vertical position perpendicular to the skin's surface and applied for a period of 20 seconds with all pressure supplied by gravity. […] 24 burns were evenly distributed on both sides of the back of four pigs. […] Debridement was performed by gently rubbing dry gauze against the surface of the burn until the necrotic epidermis was peeled away from the entire burn surface. Interventions: On the back skin of each pig, equal sets of 4 burns were randomly treated with one of the 6 study treatments. […]

burn wounds [6] = experiment: Intravenous treatment in porcine vertical progression burn model; format: in vivo, pig; settings: intravenous infusion 0.001, 0.01 or 0.1 mg/kg
Protocol: The vertical progression burn model (as shown in above topical experiment) was used to create burns on the backs of each of 4 pigs. Twenty burns (80° C./20 seconds) were made on the backs of each pig—one set of burns was made 8 hours prior to infusion, the second set was made 4 hours prior to infusion. Three pigs were treated with infusions of 0.001, 0.01 or 0.1 mg/kg of cNP8 and one pig was treated with an infusion of buffer, as control. Lyophilized cNP8 was reconstituted in PBS (11.6 mg/ml corrected-based on 75% pure) to get a 5 mM stock solution in the laboratory and filtered with a syringe filter with 0.22 um membrane. The concentration of filtered cNP8 solution was determined by reading OD280 and the concentration was calculated based on OD280=6.76 per mM cNP8. The cNP8 was diluted to 5 mM with PBS as necessary. The filtered cNP8 solution was aliquoted and stored at −80° C. Just before infusion, cNP8 was further diluted: a) 1:270 with PBS to get a 0.019 mM cNP8 solution. The injection amount was 3 ml/kg body weight of 0.019 mM cNP8 which is equal to 0.1 mg/kg body weight. b) 1:2700 with PBS to get a 0.0019 mM cNP8 solution. The injection was 3 ml/kg body weight of 0.0019 mM cNP8 which is equal to 0.01 mg/kg body weight. c) 1:27000 with PBS to get a 0.00019 mM cNP8 solution. The injection amount was 3 ml/kg body weight of 0.00019 mM cNP8 which is equal to 0.001 mg/kg body weight. […]

[7] = tested on: adult human dermal fibroblast; experiment: Screening experiment of adult human dermal fibroblast survival in medium without serum with 1 nM PDGF-BB; format: cell-based; settings: 6 days of incubation
[8] = biological target: T1, human neutrophil elastase (Homo sapiens, UniProt P08246)
T1 sequence (P08246 30-267): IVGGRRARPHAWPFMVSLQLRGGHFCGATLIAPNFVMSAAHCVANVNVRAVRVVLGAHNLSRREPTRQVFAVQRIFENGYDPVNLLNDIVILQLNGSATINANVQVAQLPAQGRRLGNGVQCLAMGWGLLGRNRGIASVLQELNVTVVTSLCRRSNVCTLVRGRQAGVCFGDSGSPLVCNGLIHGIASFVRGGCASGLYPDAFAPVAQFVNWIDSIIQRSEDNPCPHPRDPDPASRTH
Protocol: P46 was incubated with purified human neutrophil elastase at 1:100 enzyme:substrate molar ratio at 37° C. for 4 h (3A) or 24 h (3B). Peptides stability was determined by MALDI-TOF analysis.
Peptides' stability was determined by MALDI-TOF analysis.
The reaction was stopped with formic acid and the reaction mixture was analyzed by mass spectroscopy.
To determine the sensitivity of P46 to elastase digestion, P46 was synthesized and digested with elastase. […] P46 was incubated with purified human neutrophil elastase at 1:100 enzyme:substrate molar ratio at 37° C. for 4 h (FIG. 3A) or 24 h (FIG. 3B). The elastase-generated smaller peptides were determined by MALDI-TOF analysis.
Peptide's stability was determined by MALDI-TOF analysis.

[9] = tested on: human neutrophil elastase; experiment: purified human neutrophil elastase; settings: up to 24 h

Molecule: CC[C@H](C)[C@@H]1NC(=O)[C@H](Cc2c[nH]cn2)NC(=O)[C@H](C(C)C)NC(=O)[C@H](CO)NC(=O)CNC(=O)[C@H](CCCCN)NC(=O)[C@@H]2CCCN2C(=O)[C@H](CCCNC(=N)N)NC(=O)[C@H](Cc2c[nH]c3ccccc23)NC(=O)[C@H](CCCNC(=N)N)NC(=O)[C@H](CC(C)C)NC(=O)CNC(=O)[C@H](Cc2ccc(O)cc2)NC(=O)[C@H](CCCCN)NC(=O)CNC1=O [cNP8, HIGKYGLRWRPKGSV] (cyclo(HIGKYGLRWRPKGSV))
- bioactivity compared with other peptides ([1]; FIG. 4, XTT): equivalent or better bioactivity; also recorded: much higher bioactivity than that of P12
- promotion of survival of adult human dermal fibroblasts in the presence of PDGF-BB ([1]; FIG. 4, XTT): promoted the survival of adult human dermal fibroblasts
- binding to PDGF-BB (PDGF-BB): bind
- binding to TGF-β1 [2]: bind
- binding to EGF [3]: did not bind
- binding to IGF-1 [4]: did not bind
- re-epithelialization (burn wounds [5]): markedly increased
- re-epithelialization (burn wounds [6]; day 10 post-injury (FIG. 7)): markedly increased; also recorded: increase of re-epithelialization
- re-epithelialization (burn wounds [6]; day 14 post-injury (FIG. 8)): markedly increased; also recorded: increase of re-epithelialization

Molecule: HIGKYGLRWRPKGSV (polypeptide according to formula I) [NP8, engineered peptide designed from P46]
- biological activity on screening experiment of fibroblast survival [7]: best biological activity

Molecule: HIGKYGLRWRPKNSV [cNP7, cyclic form of engineered peptide NP7]
- promotion of survival of adult human dermal fibroblasts in the presence of PDGF-BB ([1]; FIG. 4, XTT): promoted the survival of adult human dermal fibroblasts

Molecule: HISKYILGWRPKNSV (NP9 peptide) [engineered peptide designed from P46]
- biological activity on screening experiment of fibroblast survival [7]: minimal biological activity

Molecule: HISKYILRGRPKNSV (NP10 peptide) [engineered peptide designed from P46]
- biological activity on screening experiment of fibroblast survival [7]: minimal biological activity

Molecule: HISKYILRWGPKNSV (NP11 peptide) [engineered peptide designed from P46]
- biological activity on screening experiment of fibroblast survival [7]: minimal biological activity

Molecule: HISKYILRWRPKNSV (polypeptide according to formula I) [P46]
- bioactivity as determined by fibroblast metabolism assay [1]: much higher bioactivity than that of P12
- promotion of survival of adult human dermal fibroblasts in the presence of PDGF-BB ([1]; FIG. 4, XTT): promoted the survival of adult human dermal fibroblasts
- binding to PDGF-BB (PDGF-BB): bind
- binding to TGF-β1 [2]: bind
- binding to EGF [3]: did not bind
- binding to IGF-1 [4]: did not bind
- sensitivity to elastase digestion [8]: retained some sensitivity to elastase digestion

Molecule: PSHISKYILRWRPK
- fragment found [9]: KYILRWRPKPSHIS; also recorded: RWRPKPSHISKYIL

Molecule: PSHISKYILRWRPK [cP12]
- degradation by neutrophil elastase [8]: remain sensitive to this endopeptidase
- number of elastase-cleavage sites [8]: five

Molecule: SKYILRWRPKNSV (P45 peptide) [peptide produced by elastase digestion of FN III1-C]
- bioactivity as determined by fibroblast metabolism assay [1]: little bioactivity

Molecule: cyclo(HIGKYGLRWRPKGSV) (SMILES CC[C@H](C)[C@@H]1NC(=O)[C@H](Cc2c[nH]cn2)NC(=O)[C@H](C(C)C)NC(=O)[C@H](CO)NC(=O)CNC(=O)[C@H](CCCCN)NC(=O)[C@@H]2CCCN2C(=O)[C@H](CCCNC(=N)N)NC(=O)[C@H](Cc2c[nH]c3ccccc23)NC(=O)[C@H](CCCNC(=N)N)NC(=O)[C@H](CC(C)C)NC(=O)CNC(=O)[C@H](Cc2ccc(O)cc2)NC(=O)[C@H](CCCCN)NC(=O)CNC1=O)
- not cleaved ([9]; 37° C.): A large majority of intact peptide was retained at 24 h
